The nature of series [1]: n-octanol/water distribution coefficient (shake-flask). The following applies: pH 7.4, […]. The class given is physicochemical. As for the experimental part: The exchange of the coligand (H2O/Cl^–) changes the overall charge of the complex, thus affecting lipophilicity. […] The traditional shake-flask method was used to obtain distribution coefficients of the ligands as well as of the complexes in n-octanol/buffered aqueous solution (20 mM phosphate, pH = 7.4) at different chloride ion concentrations (4, 24, and 100 mM) using UV–vis spectrophotometry (Agilent Cary 8454 diode array spectrophotometer, Santa Clara, CA, USA) for the analysis. The compounds were dissolved in buffered aqueous solutions previously saturated with n-octanol. Then the aqueous and n-octanol phases were gently mixed in different volume ratios (using 1:60 for the ligands, 1:1 for the RhCp* and 1:2 for the RuCym complexes ratios of n-octanol to buffered aqueous solution volume) for 4 h, followed by phase separation. Then the UV–vis spectrum of the aqueous or n-octanol phase was recorded and compared to the reference spectrum. Stock solutions were made in the aqueous phase, and distribution coefficients (DpH) were calculated by the following equation: [drawing 3]

Series [2] in a line: pKa of in situ prepared complexes by UV–vis titration. The class given is physicochemical. Particulars: 1:1 system, absence of chloride, I = 0.20 M KNO3. An excerpt: The UV–vis spectra of the complexes prepared in situ were then followed at different pH values in the absence of chloride ions. No spectral changes were observed between pH = 2–6.3 (RuCym) or 7.5 (RhCp*), indicating high solution stability in both cases; however, the changes were significant in the basic pH range (Figure S22). In the case of RuCym complexes, two overlapping processes associated with the deprotonation of the coordinated water molecule and the noncoordinated Npyr/pipH^+ moiety were observed. […] The pKa values determined for these processes are shown in Table 2 and Figure S23 together with the values obtained for complexes formed with the amino acid hybrids HQCl-D-Pro and HQCl-D-hPro (Chart 2) for comparison.[26]
An Agilent Cary 8454 diode array spectrophotometer was utilized to obtain UV–vis spectra in the wavelength range 190–1100 nm. The path length (l) was 1 or 2 cm in most cases (the actual l is always indicated in the legends of the figures). The concentrations of the ligands and complexes were between 36 and 100 μM. The ligands were titrated in the presence of 10 equiv of EDTA. Individual samples contained 0–37 μM HSA, 0–206 μM MIM, 0–759 μM AHA, or 0–733 μM FHA. Spectra were always background and baseline corrected. The computer program HypSpec[64] was used to obtain stability constants.

Series [3] in a line: pKa of in situ prepared complexes by pH-potentiometry. The series is classed as physicochemical. The following applies: I = 0.20 M KNO3. An excerpt: The results, shown in Table 2, indicate good agreement between the data obtained by the different methods. It should be noted that these processes show overlap in all cases, and therefore, the assignment of the pKa values to the given moieties cannot be made reliably. However, by comparing the spectral changes with those observed for HQ and other simple derivatives,[25] it can be concluded that the lower pKa likely belongs to the deprotonation of the aqua coligand.
The pH-potentiometric measurements were carried out at 25.0 ± 0.1 °C in water in the pH range between 2.0 and 11.5 and at a constant ionic strength of 0.20 M KNO3. The titrations were performed in a carbonate-free KOH solution (0.20 M). The exact concentrations of the HNO3 and KOH solutions were determined by pH-potentiometric titrations. An Orion 710A pH-meter equipped with a Metrohm combined electrode (type 6.0234.100) and a Metrohm 665 Dosimat buret were used for this purpose. […] The average water ionization constant, pKw, was determined as 13.76 ± 0.01, which is in good agreement with the literature data.[67] The initial volume of the samples was 10.0 mL. […] Samples were degassed by bubbling purified argon through them for about 10 min prior to the measurements, and the inert gas was also passed over the solutions during the titrations. The computer program Hyperquad2013[64] was utilized to establish the stoichiometry of the species and to calculate the equilibrium constants.

The nature of series [4]: H2O/Cl– coligand exchange by UV–vis titration with chloride ions. The series is classed as physicochemical. As for the experimental part: When the isolated complexes (1–4) are dissolved in water, their chlorido coligand can be replaced by water, or vice versa in the aqua complexes [M(arene)(HL)(H2O)]^2+, the H2O → Cl^– exchange process can take place in the presence of chloride ions. The chloride ion affinity of the complexes was also investigated by UV–vis spectrophotometry. RhCp* and RuCym complexes were titrated with chloride ions at pH 7.4 and 6.0, respectively. For this experiment, pH values were chosen at which the formation of the mixed hydroxido species is negligible. A representative spectrum series for complex (4) is shown in Figure S27, and the calculated conditional exchange constants (logK’ (H2O/Cl^–)) are given in Table 2 and in Figure S23. […] The complexes of the amino acid hybrids HQCl-D-Pro and HQCl-D-hPro have lower logK’ (H2O/Cl^–) constants most likely due to the repulsive effect of the nearby COO^– group.[26]

For series [5], the system named is Escherichia coli (ATCC 25922). Description: Antibacterial MIC, E. coli. The class given is cell-based. Particulars: Mueller Hinton Broth, 37 °C, 18 h. On the procedure: (§1) Escherichia coli (ATCC 25922) was used as Gram-negative strain and Staphylococcus aureus (ATCC 25923, methicillin-resistant (MRSA) ATCC 43300) strains were applied as Gram-positive bacterial cultures in the experiments. MIC values of the compounds were determined in 96-well plates based on the Clinical and Laboratory Standard Institute guidelines (CLSI guidelines).[76] The stock solutions of the compounds (same as those used for cytotoxicity experiments) were diluted in 100 μL of Mueller Hinton Broth. Then, 10^–4 dilution of an overnight bacterial culture in 100 μL of medium was added to each well, with the exception of the medium control wells.

Series [6] concerns Staphylococcus aureus (ATCC 25923). Description: Antibacterial MIC, S. aureus. The class given is cell-based. The following applies: Mueller Hinton Broth, 37 °C, 18 h. On the procedure:
as §1

Series [7] relates to methicillin-resistant S. aureus (MRSA) ATCC 43300. Description: Antibacterial MIC, MRSA. The class given is cell-based, Staphylococcus aureus. Particulars: Mueller Hinton Broth, 37 °C, 18 h. On the procedure:
as §1

For series [8], the target named is human serum albumin (HSA), Trp214 / site I (Homo sapiens, UniProt P02768). As to the kind of experiment: HSA Trp214 fluorescence quenching. The following applies: 1 μM HSA; λEX = 295 nm (Trp-214); pH 7.4 (PBS’); […]; 24 h.
Method: (§4) Next, spectrofluorometric measurements were also performed to gain insight into the binding interactions that may occur in the hydrophobic binding sites of HSA. Tryptophan (Trp214) quenching experiments were conducted for the complexes (1–4) (for complex (3) see Figure S31) and their ligands). […] To monitor the binding at site II, site marker displacement experiments were performed using dansylglycine (DG).
(§5) Fluorescence measurements were carried out on a Fluoromax (Horiba Jobin Yvon, Longjumeau, France) spectrofluorometer using a 1 cm × 1 cm quartz cuvette. […] Excitation wavelengths were 295 nm for Trp-214 quenching and 340 nm for the DG displacement studies. The calculated conditional stability constants for HSA–complex species were obtained using the computer program HypSpec.[64] Calculations always were based on data obtained from at least two independent measurements.
For series [9], the target named is human serum albumin (HSA), site II (Homo sapiens, UniProt P02768). As to the kind of experiment: HSA dansylglycine (DG) site marker displacement. Particulars: cHSA = cDG = 1 μM; λEX = 335 nm (DG); pH 7.4 (PBS’); […]; 24 h.
Method: as §4, §5
Series [10] concerns MES-SA. Description: Cytotoxicity in double coculture, MES-SA mCherry. Particulars: read-out: IC50 MES-SA; double coculture with MES-SA/Dx5; 144 h; without TQ.
Method: Therefore, the novel half-sandwich complexes (1–4) and their corresponding ligands were tested against a coculture of MES-SA and MES-SA/Dx5 cells expressing the fluorescent proteins mCherry or eGFP, respectively.[62]
The tested compounds were dissolved in 50% (v/v) DMSO/PBS’ buffer to prepare 5–10 mM stock solutions, which were diluted in complete culture medium. Constitutive expression of the fluorescent proteins allowed multiplexing in cytotoxicity experiments.[62] […] Serial dilutions of the compounds were added 24 h after seeding. To address the effect of P-gp function, TQ was added at a nontoxic concentration (0.4 μM) 15 min before the test compounds. […] IC50 values and standard deviation were calculated from average pIC50 values from at least 3 independent measurements.
For series [11], the system named is MES-SA/Dx5. Description: Cytotoxicity in double coculture, MES-SA/Dx5 eGFP. The following applies: for SR = IC50 (MES-SA)/IC50 (MES-SA/Dx5): double coculture; for IC50: read-out: IC50 MES-SA/Dx5, double coculture with MES-SA, 144 h.
In series [12] the test system is MES-SA. Description: Cytotoxicity in triple coculture, MES-SA mCherry. The class given is cell-based, human. The following applies: Homo sapiens, MES-SA/B1, MES-SA/Dx5, 144 h. On the procedure: (§2) Cell lines were purchased from the American Type Culture Collection (ATCC). MES-SA/B1 is a human MDR1-transfected derivative of MES-SA, and MES-SA mCherry, MES-SA/B1 mOrange, and MES-SA/Dx5 eGFP were engineered to stably express the respective fluorescent proteins previously.[62] Cells were kept in culture medium (DMEM) supplemented with 10% fetal bovine serum, 2 mM L-glutamine, 100 units/mL penicillin, and 100 μg/mL streptomycin (Thermo Fisher). One week before use, MES-SA/Dx5 eGFP cells were treated with 0.5 μM doxorubicin to ensure ABCB1/P-gp expression.
(§3) The tested compounds were dissolved in 50% (v/v) DMSO/PBS’ buffer to prepare 5–10 mM stock solutions, which were diluted in complete culture medium. Constitutive expression of the fluorescent proteins allowed multiplexing in cytotoxicity experiments.[62] Cells were mixed before seeding in 384-well plates: in double cocultures, MES-SA mCherry and MES-SA/Dx5 eGFP cells were seeded at 1250–1250 cells/well (in total 2500 cells/well); while in triple cocultures, MES-SA mCherry, MES-SA/Dx5 eGFP and MES-SA/B1 mOrange cells were seeded at 800–800–800 cells/well (in total 2400 cells/well). Serial dilutions of the compounds were added 24 h after seeding. To address the effect of P-gp function, TQ was added at a nontoxic concentration (0.4 μM) 15 min before the test compounds. The intensity of the fluorescent proteins, which is proportional to cell mass, was measured after 144 h of incubation at the respective fluorescent channels (excitation/emission: eGFP: 485 nm/510 nm; mOrange: 545 nm/567 nm; mCherry: 585 nm/610 nm). pIC50 values were calculated by a custom program written by Judit Sessler in C#.[62] IC50 values and standard deviation were calculated from average pIC50 values from at least 3 independent measurements.

The subject of series [13] is MES-SA/Dx5. As to the kind of experiment: Cytotoxicity in triple coculture, MES-SA/Dx5 eGFP. The series is classed as cell-based, human. As for the experimental part:
as §2, §3

The subject of the next series is MES-SA/B1. As to the kind of experiment: Cytotoxicity in triple coculture, MES-SA/B1 mOrange. The series is classed as cell-based, human. On the procedure:
as §2, §3

Series [14] can be described thus: Ligand displacement with 2,2′-bipyridine, conditional formation constant. The series is classed as physicochemical. Particulars: pH 7.4; bpy competitor; UV–vis. An excerpt:
These pKa (H2O) values are lower than those of the complexes formed with the corresponding amino acid hybrids (HQCl-D-Pro, HQCl-D-hPro, Figure S23). Thus, the predominant complex at pH 7.4 is [M(arene)(HL)(H2O)]^2+ in all cases, in which the bidentate ligand coordinates via the (N,O^–) donor set and the pyridinium or pyrrolidinium nitrogens are protonated just like in the isolated complexes (Chart 3). Based on the unchanged spectra (vide supra), these types of complexes show no dissociation at pH = 2, indicating their high stability and hindering the direct determination of the formation constants. Therefore, a ligand displacement experiment was performed using UV–vis spectrophotometry with 2,2′-bipyridine (bpy) as a competitor to determine conditional formation constants at pH = 7.4 (Figure S25). […] Nevertheless, these values indicate a high stability of the complexes in solution, and <1% of dissociation is estimated at 1 μM concentration at pH = 7.4. The ligand displacement measurement could not be applied to the RuCym complexes due to the release of the p-cymene ring followed by the formation of the mixed ligand complex with bpy and oxidation of the metal center (Figure S26), similarly to analogue complexes.[14],[26],[27]

Some results are limits rather than exact numbers.

Sequence of human serum albumin (HSA), Trp214 / site I (P02768 25-609): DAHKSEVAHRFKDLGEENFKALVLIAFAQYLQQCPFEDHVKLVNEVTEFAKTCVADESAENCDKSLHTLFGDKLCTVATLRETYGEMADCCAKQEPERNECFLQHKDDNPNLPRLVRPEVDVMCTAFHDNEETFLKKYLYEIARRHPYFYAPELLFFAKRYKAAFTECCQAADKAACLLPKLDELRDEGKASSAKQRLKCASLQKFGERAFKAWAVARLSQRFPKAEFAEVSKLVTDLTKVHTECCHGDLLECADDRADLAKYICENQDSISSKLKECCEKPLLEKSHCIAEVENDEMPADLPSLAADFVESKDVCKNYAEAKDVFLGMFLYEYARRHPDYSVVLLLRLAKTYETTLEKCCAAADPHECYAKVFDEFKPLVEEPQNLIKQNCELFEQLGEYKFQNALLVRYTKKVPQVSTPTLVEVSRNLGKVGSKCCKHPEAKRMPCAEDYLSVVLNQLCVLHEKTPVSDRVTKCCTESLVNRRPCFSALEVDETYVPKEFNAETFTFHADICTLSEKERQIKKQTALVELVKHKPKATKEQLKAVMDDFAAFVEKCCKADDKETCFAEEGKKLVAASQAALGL
Sequence of human serum albumin (HSA), site II (P02768 25-609): as above

As to [RuCym(HQCl-Pyr)Cl]Cl [(2)], the logD7.4 entry in series [1] (c(Cl–) = 4 mM) is listed as “–0.12 ± 0.02”; in [1] (c(Cl–) = 24 mM), “+0.23 ± 0.03”; in series [1] (c(Cl–) = 100 mM), “+0.46 ± 0.02”. Also, the “pKa (H2O)” value came to 8.42 ± 0.03 in [2] and 8.47 ± 0.04 in [3]. The “pKa (Npyr/pipH+)” value is 10.32 ± 0.03 in series [2] and 10.40 ± 0.03 in series [3]. In addition, in series [4] (RuCym complexes titrated at pH 6.0), the “logK’ (H2O/Cl–)” value was 1.60 ± 0.07. The minimal inhibitory concentration (MIC) in series [5], in series [6] and in [7] was more than 100 µM throughout. In addition, in series [8], the “logK’(quenching)” value is listed as 5.3 ± 0.2. The “logK’(DG)” value in [9] worked out at 5.2 ± 0.1. The IC50 with MES-SA [10] turned out to be 8970 nM; with MES-SA/Dx5 [11] (without TQ) it was 2780 nM. For the same molecule, the entries for the “SR = IC50 (MES-SA)/IC50 (MES-SA/Dx5)” value in the series with MES-SA/Dx5 [11] (+ 0.4 μM tariquidar (TQ)) and with MES-SA/Dx5 [11] (without TQ) were 0.1 and 3.2, respectively.
Turning to `COc1cc([C@@H]2c3cc4c(cc3[C@@H](O[C@@H]3O[C@@H]5CO[C@@H](C)O[C@H]5[C@H](O)[C@H]3O)[C@H]3COC(=O)[C@H]23)OCO4)cc(OC)c1O` [etoposide], the IC50 with MES-SA [12] was 260 nM; in the series with MES-SA/Dx5 [13] (Homo sapiens, MES-SA/Dx5, 144 h), 1700 nM. Also, the “SR Dx5 = IC50 (MES-SA)/IC50 (MES-SA/Dx5)” value in the series on MES-SA/Dx5 [13] is recorded as 0.15. In addition, the “SR B1 = IC50 (MES-SA)/IC50 (MES-SA/B1)” value in the series with MES-SA/B1 was determined as 0.22.
With `Cc1c(C)c(C)[c-](C)c1C.[Cl-].[Cl-].[O-]c1c(C[NH+]2CCCC2)cc(Cl)c2cccnc12.[Rh+3]` [(1), [RhCp*(HQCl-Pyr)Cl]Cl], the results for the logD7.4 entry in [1] (c(Cl–) = 4 mM), in [1] (c(Cl–) = 24 mM) and in [1] (c(Cl–) = 100 mM) were “–0.11 ± 0.01”, “+0.12 ± 0.01” and “+0.22 ± 0.01”, respectively. Besides, in series [3], the “pKa (H2O)” value is 9.35 ± 0.03. In addition, the “pKa (Npyr/pipH+)” value in series [3] is 10.47 ± 0.03. For the same molecule, in series [4] (RhCp* complexes titrated at pH 7.4), the “logK’ (H2O/Cl–)” value is 2.23 ± 0.02. The “logK’ [M(arene)L]7.4 conditional formation constant” value in [14] is on record as 12.06 ± 0.02. Also, the MIC in series [5], in [6] and in series [7] was 50 µM throughout. Moreover, the “logK’(quenching)” value in series [8] was 5.1 ± 0.1. For the same molecule, the “logK’(DG)” value in [9] was 5.0 ± 0.1. Further, the figures for the IC50 in the series with MES-SA [10] and in the series with MES-SA/Dx5 [11] (without TQ) were 2970 nM and 190 nM, respectively. Also, the “SR = IC50 (MES-SA)/IC50 (MES-SA/Dx5)” value in the series with MES-SA/Dx5 [11] (+ 0.4 μM tariquidar (TQ)) is listed as 1.3; with MES-SA/Dx5 [11] (without TQ), 16.0.

Usually MIC stands for the least concentration at which growth counts as inhibited. Read a high MIC as a less susceptible organism.

(Values after PMC11653257, “Organometallic Half-Sandwich Complexes of 8-Hydroxyquinoline-Derived Mannich Bases with Enhanced Solubility: Targeting Multidrug Resistant Cancer” (Inorganic Chemistry, 2024).)
